# Measured values taken from ChEMBL document CHEMBL3886544, “Substituted dialkyl(oxido)-lambda4-sulfanylidene nicotinamide derivatives as kinase inhibitors” (2016).
# pIC50: −log10 of the molar value.
# What was measured:
# [1] = target: T1, Vascular endothelial growth factor receptor 2 (Homo sapiens, UniProt P35968); assay: VEGFR2 Kinase Assay: Biochemical KDR kinase assays were performed in 96 well microtiter plates that were coated overnight with 75 ug/well of poly-Glu-Tyr (4:1) in 10 mM Phosphate Buffered Saline (PBS), pH 7.4. The coated plates were washed with 2 mls per well PBS+0.05% Tween-20 (PBS-T), blocked by incubation with PBS containing 1% BSA, then washed with 2 mls per well PBS-T prior to starting the reaction. Reactions were carried out in 100 uL reaction volumes containing 2.7 uM ATP in kinase buffer (50 mM Hepes buffer pH 7.4, 20 mM MgCl2, 0.1 mM MnCl2 and 0.2 mM Na3VO4). Test compounds were reconstituted in 100% DMSO and added to the reaction to give a final DMSO concentration of 5%. Reactions were initiated by the addition 20 ul per well of kinase buffer containing 200-300 ng purified cytoplasmic domain KDR protein (BPS Bioscience, San Diego, Calif.). Following a 15 minute incubation at 30° C., the reactions were washed 2 mls per well PBS-T. 100 ul of a monoclonal anti-phosphotyrosine antibody-peroxidase conjugate diluted 1:10,000 in PBS-T was added to the wells for 30 minutes. Following a 2 mls per well wash with PBS-Tween-20, 100 ul of 0-Phenylenediamine Dihydrochloride in phosphate-citrate buffer, containing urea hydrogen peroxide, was added to the wells for 7-10 minutes as a colorimetric substrate for the peroxidase. The reaction was terminated by the addition of 100 ul of 2.5N H2SO4 to each well and read using a microplate ELISA reader set at 492 nm.
# [2] = target: T1, Vascular endothelial growth factor receptor 2; assay: (§1) VEGFR2 Cellular Assay: Automated FLIPR (Fluorometric Imaging Plate Reader) technology was used to screen for inhibitors of VEGF induced increases in intracellular calcium levels in fluorescent dye loaded endothelial cells. HUVEC (human umbilical vein endothelial cells) (Clonetics) were seeded in 384-well fibronectin coated black-walled plates overnight @ 37° C./5% CO2. Cells were loaded with calcium indicator Fluo-4 for 45 minutes at 37° C. Cells were washed 2 times (Elx405, Biotek Instruments) to remove extracellular dye. For screening, cells were pre-incubated with test agents for 30 minutes, at a single concentration (10 uM) or at concentrations ranging from 0.0001 to 10.0 uM followed by VEGF165 stimulation (10 ng/mL). Changes in fluorescence at 516 nm were measured simultaneously in all 384 wells using a cooled CCD camera. Data were generated by determining max-min fluorescence levels for unstimulated, stimulated, and drug treated samples.; assay type: cell-based, Endothelial cell
# [3] = target: T2, Platelet-derived growth factor receptor beta (Homo sapiens, UniProt P09619); assay: PDGFRbeta Kinase Assay: Biochemical PDGFRbeta kinase assays were performed in 96 well microtiter plates that were coated overnight with 75 ug of poly-Glu-Tyr (4:1) in 10 mM Phosphate Buffered Saline (PBS), pH 7.4. The coated plates were washed with 2 mls per well PBS+0.05% Tween-20 (PBS-T), blocked by incubation with PBS containing 1% BSA, then washed with 2 mls per wellPBS-T prior to starting the reaction. Reactions were carried out in 100 uL reaction volumes containing 36 uM ATP in kinase buffer (50 mM Hepes buffer pH 7.4, 20 mM MgCl2, 0.1 mM MnCl2 and 0.2 mM Na3VO4). Test compounds were reconstituted in 100% DMSO and added to the reaction to give a final DMSO concentration of 5%. Reactions were initiated by the addition 20 ul per well of kinase buffer containing 200-300 ng purified cytoplasmic domain PDGFR-b protein (Millipore). Following a 60 minute incubation at 30° C., the reactions were washed 2 mls per well PBS-T. 100 ul of a monoclonal anti-phosphotyrosine antibody-peroxidase conjugate diluted 1:10,000 in PBS-T was added to the wells for 30 minutes. Following a 2 mls per well wash with PBS-Tween-20, 100 ul of 0-Phenylenediamine Dihydrochloride in phosphate-citrate buffer, containing urea hydrogen peroxide, was added to the wells for 7-10 minutes as a colorimetric substrate for the peroxidase. […]
# [4] = target: T2, Platelet-derived growth factor receptor beta; assay: as §1, with “PDGFRbeta : Automated” for “VEGFR2 Cellular Assay: Automated”, “of PDGF-induced” for “of VEGF induced”, “cells. NHDF-Ad (Normal Human Dermal Fibroblasts, Adult; Lonza)” for “cells. HUVEC (human umbilical vein endothelial cells) (Clonetics)”, “by PDGF-BB” for “by VEGF165”, “stimulation (30” for “stimulation (10”; assay type: cell-based, Endothelial cell
# T1 sequence (P35968 whole entry, the tested form may be a part): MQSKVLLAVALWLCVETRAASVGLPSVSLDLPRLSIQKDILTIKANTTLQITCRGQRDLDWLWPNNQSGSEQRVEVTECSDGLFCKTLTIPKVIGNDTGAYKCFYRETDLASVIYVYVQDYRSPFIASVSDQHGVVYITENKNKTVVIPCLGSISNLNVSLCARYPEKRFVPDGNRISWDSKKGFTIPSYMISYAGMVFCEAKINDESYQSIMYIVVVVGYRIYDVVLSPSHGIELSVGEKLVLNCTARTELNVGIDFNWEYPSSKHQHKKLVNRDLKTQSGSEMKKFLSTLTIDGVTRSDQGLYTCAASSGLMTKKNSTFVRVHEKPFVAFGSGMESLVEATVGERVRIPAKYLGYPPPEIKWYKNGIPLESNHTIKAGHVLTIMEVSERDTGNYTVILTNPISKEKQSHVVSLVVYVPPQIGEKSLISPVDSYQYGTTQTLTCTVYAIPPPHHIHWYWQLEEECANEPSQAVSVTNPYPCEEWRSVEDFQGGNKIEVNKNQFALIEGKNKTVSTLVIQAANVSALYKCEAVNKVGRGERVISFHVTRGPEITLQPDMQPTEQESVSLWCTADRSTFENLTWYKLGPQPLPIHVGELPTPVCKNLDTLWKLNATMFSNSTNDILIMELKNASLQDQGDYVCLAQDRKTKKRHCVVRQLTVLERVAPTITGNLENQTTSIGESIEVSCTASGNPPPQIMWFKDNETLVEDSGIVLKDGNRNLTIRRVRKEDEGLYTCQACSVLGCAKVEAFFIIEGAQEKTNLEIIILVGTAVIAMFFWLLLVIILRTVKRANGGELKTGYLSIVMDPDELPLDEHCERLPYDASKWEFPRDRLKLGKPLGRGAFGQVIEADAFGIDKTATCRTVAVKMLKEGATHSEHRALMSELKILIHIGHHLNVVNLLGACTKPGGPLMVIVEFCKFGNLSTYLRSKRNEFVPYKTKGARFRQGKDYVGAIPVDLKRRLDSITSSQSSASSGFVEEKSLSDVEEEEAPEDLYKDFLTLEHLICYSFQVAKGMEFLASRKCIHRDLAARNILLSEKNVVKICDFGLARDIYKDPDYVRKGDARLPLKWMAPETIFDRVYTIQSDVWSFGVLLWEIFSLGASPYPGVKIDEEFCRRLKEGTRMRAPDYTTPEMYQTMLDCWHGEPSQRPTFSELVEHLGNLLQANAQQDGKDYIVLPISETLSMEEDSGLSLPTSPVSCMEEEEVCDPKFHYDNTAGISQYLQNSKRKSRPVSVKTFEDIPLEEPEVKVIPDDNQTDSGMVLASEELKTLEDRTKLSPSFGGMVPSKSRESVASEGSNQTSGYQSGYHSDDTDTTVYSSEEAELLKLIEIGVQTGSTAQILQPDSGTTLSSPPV
# T2 sequence (P09619 whole entry, the tested form may be a part): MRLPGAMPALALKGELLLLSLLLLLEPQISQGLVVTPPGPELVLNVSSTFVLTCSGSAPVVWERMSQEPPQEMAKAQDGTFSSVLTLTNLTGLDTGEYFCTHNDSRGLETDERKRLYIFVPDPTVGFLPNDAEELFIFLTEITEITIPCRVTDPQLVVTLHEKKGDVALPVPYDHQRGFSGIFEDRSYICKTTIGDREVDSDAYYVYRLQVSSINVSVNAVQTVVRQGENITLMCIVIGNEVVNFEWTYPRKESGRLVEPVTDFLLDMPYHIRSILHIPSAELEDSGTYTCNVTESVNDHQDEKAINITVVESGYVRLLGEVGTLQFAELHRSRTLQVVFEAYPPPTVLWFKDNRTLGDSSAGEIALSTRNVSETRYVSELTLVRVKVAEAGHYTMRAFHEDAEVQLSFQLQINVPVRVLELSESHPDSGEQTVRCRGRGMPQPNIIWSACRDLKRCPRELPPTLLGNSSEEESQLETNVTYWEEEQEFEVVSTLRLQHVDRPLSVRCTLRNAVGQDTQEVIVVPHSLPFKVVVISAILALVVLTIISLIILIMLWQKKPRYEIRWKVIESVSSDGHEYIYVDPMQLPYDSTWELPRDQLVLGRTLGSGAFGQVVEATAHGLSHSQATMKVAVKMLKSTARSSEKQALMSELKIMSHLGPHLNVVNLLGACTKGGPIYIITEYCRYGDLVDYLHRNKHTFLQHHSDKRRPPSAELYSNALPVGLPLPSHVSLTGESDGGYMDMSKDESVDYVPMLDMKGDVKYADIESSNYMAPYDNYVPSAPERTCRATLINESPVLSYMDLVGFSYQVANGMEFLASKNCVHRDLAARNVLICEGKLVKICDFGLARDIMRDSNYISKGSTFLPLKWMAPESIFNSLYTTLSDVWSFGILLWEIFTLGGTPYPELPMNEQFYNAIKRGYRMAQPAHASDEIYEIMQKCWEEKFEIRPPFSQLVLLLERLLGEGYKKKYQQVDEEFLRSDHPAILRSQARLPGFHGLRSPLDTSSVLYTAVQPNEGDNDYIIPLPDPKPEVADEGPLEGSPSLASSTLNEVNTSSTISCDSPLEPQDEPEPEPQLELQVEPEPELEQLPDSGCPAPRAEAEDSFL
pIC50 [1],pIC50 [2],pIC50 [3],pIC50 [4],SMILES
8.05,8.00,–,–,Cc1ccoc1C(=O)Nc1cccc(C#Cc2cncc(C(=O)N=S(C)(=O)CCCN3CCN(CCOCCO)CC3)c2)c1 (stereo not drawn)
8.52,–,7.74,–,Cc1ccoc1C(=O)Nc1cccc(C#Cc2cncc(C(=O)N=[S@@](C)(=O)CCCO)c2)c1
8.52,–,–,–,Cc1ccoc1C(=O)Nc1cccc(C#Cc2cc(C(=O)N=S(C)(=O)CC(=O)N3CC[C@H](O)C3)cnc2N)c1 (stereo partly drawn)
7.85,9.00,–,7.51,Cc1ccoc1C(=O)Nc1cccc(C#Cc2cncc(C(=O)N=S(C)(=O)CCCO)c2)c1 (stereo not drawn)
